In patent publication US10996170B2, “Device and method for imaging shortwave infrared fluorescence” (Massachusetts Institute of Technology, priority 2016, dated 2021):

Tested on: liver
Experiment: SWIR imaging of hepatobiliary clearance in vivo
Conditions: 1.7 mg/kg intravenously; mouse
Method: When injected into a living system, indocyanine green is metabolized by the liver and excreted by the liver and bile ducts by a process called hepatobiliary clearance. This process was observed, noninvasively, by injecting a solution of indocyanine green intravenously into a mouse and using an SWIR imaging system as described herein to observe the fluorescence of indocyanine green. The dye was injected at a dose of 1.7 mg/kg which is below the maximum recommended dose of indocyanine green in humans. […] Despite the fact that 1500 nm is far from the peak emission of indocyanine green, there is sufficient emission intensity from the tail of the emission peak in this wavelength region to obtain a SWIR fluorescence image. Separately, hepatobiliary excretion of ICG into the small intestine in a mouse was also imaged using a near video rate imaging of 19.7 frames per second using a 1200 nm long-pass filter, which enabled capturing the peristaltic movements of the small intestine. Although the frame rate was slower, 2.0 frames per second, it was possible to image the ICG clearance using a 1500 nm long-pass filter, capturing wavelengths between roughly 1500 and 1620 nm.

For CC1(C)C(/C=C/C=C/C=C/C=C2\N(CCCCS(=O)(=O)O)c3ccc4ccccc4c3C2(C)C)=[N+](CCCCS(=O)(=O)[O-])c2ccc3ccccc3c21 [ICG, indocyanine green], the “tissue distribution observed by SWIR fluorescence” value was “Accumulation of indocyanine green in the liver”.
